Measurements reported in patent publication US7728146B2, “Enzyme inhibitors” (Probiodrug AG, priority 2006, dated 2010).
Like-named read-outs stand apart in the source and are kept apart here.

Molecular target: DP IV (Homo sapiens, UniProt P27487)
Experiment: DP IV inhibition IC50, parallel-synthesis compounds tested directly following synthesis (without purification)
Format: biochemical
Parameters: IC50 DP4; other: tested directly following parallel synthesis, without purification; compounds of formula (Ib) from parallel synthesis, tested directly following synthesis
Method in brief: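 Porcine kidney or recombinant human enzyme (~40-50 μU/ml, HEPES buffer) hydrolysing Gly-Pro-pNA at room temperature, with 5% DMSO final; 11-point 1:2 dilutions from 100 μM final, in duplicate. pNA release read at 405 nm over ~18 min; slopes vs solvent control give residual activity, and IC50 comes from a 4-parameter fit.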

[1] = tested directly following parallel synthesis, without purification, read-out: IC50 DP4
[2] = DP IV inhibition, compounds of formula (Ib) from parallel synthesis, tested directly following synthesis (without purification), read-out: IC50

Compound	IC50 [1]	IC50 [2]
Cc1ccc(Cn2cnc(-c3ccc(F)cc3Cl)c2CN)o1 [Example 4a, C-[5-(2-Chloro-4-fluo-ro-phenyl)-3-(5-meth-yl-furan-2-yl-methyl)-3H-imid-azol-4-yl]-methyl-amine]	34.3 µM	–
NCc1c(-c2ccc(Cl)cc2Cl)ncn1Cc1cccc(F)c1 [Example 42a, C-[5-(2,4-Dichloro-phenyl)-3-(3-fluoro-benzyl)-3H-imid-azol-4-yl]-methyl-amine]	1 µM	–
NCc1c(-c2ccc(F)cc2F)ncn1Cc1ccccc1OC(F)(F)F [Example 84a, C-[5-(2,4-Difluoro-phenyl)-3-(2-trifluoromethoxy-benzyl)-3H-imidazol-4-yl]-methylamine]	9.1 µM	–
NCc1c(-c2ccc(Cl)cc2Cl)ncn1Cc1ccc(Cl)cc1Cl [93b, C-[3-(2,4-Dichloro-benzyl)-5-(2,4-dichloro-phenyl)-3H-imidazol-4-yl]-methylamine]	–	35.2 µM
NCc1c(-c2ccc(Cl)cc2Cl)ncn1CCc1ccc(Br)cc1 [49b, C-[3-[2-(4-Bromo-phenyl)-ethyl]-5-(2,4-dichloro-phenyl)-3H-imidazol-4-yl]-methylamine]	–	9.1 µM
NCc1c(-c2ccc(F)cc2F)ncn1Cc1cccc(F)c1 [Example 78a, C-[5-(2,4-Difluoro-phenyl)-3-(3-fluoro-benzyl)-3H-imid-azol-4-yl]-methyl-amine]	46 µM	–
NCc1c(-c2ccc(Cl)cc2Cl)ncn1Cc1cccc(C(F)(F)F)c1 [89b, C-[5-(2,4-Dichloro-phenyl)-3-(3-trifluoromethyl-benzyl)-3H-imidazol-4-yl]-methylamine]	–	1.9 µM
NCc1c(-c2ccc(Cl)cc2Cl)ncn1Cc1c(F)cccc1Cl [Example 45a, C-[3-(2-Chloro-6-fluoro-benzyl)-5-(2,4-dichloro-phenyl)-3H-imid-azol-4-yl]-methyl-amine]	1.9 µM	–
NCc1c(-c2ccc(Cl)cc2Cl)ncn1Cc1ccc(F)cc1F [Example 54b, C-[5-(2,4-dichloro-phenyl)-3-(2,4-difluoro-benzyl)-3H-imidazol-4-yl]-methylamine]	–	4.6 µM
CC(C)CCCCCCn1cnc(-c2ccc(Cl)cc2Cl)c1CN [99b, C-[5-(2,4-Dichloro-phenyl)-3-(7-methyl-octyl)-3H-imidazol-4-yl]-methylamine]	–	4.6 µM
NCc1c(-c2ccc(F)cc2Cl)ncn1Cc1cccnc1 [Example 31a, C-[5-(2-Chloro-4-fluoro-phenyl)-3-pyri-din-3-ylmethyl-3H-imid-azol-4-yl]-methyl-amine]	5.5 µM	–
NCc1c(-c2ccc(F)cc2Cl)ncn1Cc1ccc(F)cc1 [Example 5a, C-[5-(2-Chloro-4-fluoro-phenyl)-3-(4-fluoro-benzyl)-3H-imid-azol-4-yl]-methyl-amine]	10.9 µM	–
NCc1c(-c2ccc(Cl)cc2Cl)ncn1Cc1ccccc1C(F)(F)F [108b, C-[5-(2,4-Dichloro-phenyl)-3-(2-trifluoromethyl-benzyl)-3H-imidazol-4-yl]-methylamine]	–	5.5 µM
NCc1c(-c2ccc(F)cc2Cl)ncn1Cc1ccc2c(c1)OCO2 [Example 16a, C-[3-Ben-zo[1,3]di-oxol-5-yl-methyl-5-(2-chlo-ro-4-fluoro-phenyl)-3H-imid-azol-4-yl]-methyl-amine]	28 µM	–
NCc1c(-c2ccc(Cl)cc2Cl)ncn1Cc1ccc(Cl)cc1 [82b, C-[3-(4-Chloro-benzyl)-5-(2,4-dichloro-phenyl)-3H-imidazol-4-yl]-methylamine]	–	15.4 µM
CC(N)c1c(-c2ccc(Cl)cc2Cl)ncn1Cc1cc(F)ccc1F (stereo not shown) [36b, 1-[5-(2,4-Dichloro-phenyl)-3-(2,5-difluoro-benzyl)-3H-imidazol-4-yl]-ethylamine]	–	25.3 µM
NCc1c(-c2ccc(Cl)cc2Cl)ncn1CCN1CCCC1 [26b, C-[5-(2,4-Dichloro-phenyl)-3-(2-pyrrolidin-1-yl-ethyl)-3H-imidazol-4-yl]-methylamine]	–	40.6 µM
NCc1c(-c2ccc(Cl)cc2Cl)ncn1Cc1ccsc1 [Example 43a, C-[5-(2,4-Dichloro-phenyl)-3-thio-phen-3-yl-methyl-3H-imid-azol-4-yl]-methyl-amine]	0.1 µM	–
NCc1c(-c2ccc(Cl)cc2Cl)ncn1Cc1ccc(Cl)c(Cl)c1 [Example 58a, C-[3-(3,4-Dichloro-benzyl)-5-(2,4-dichloro-phenyl)-3H-imid-azol-4-yl]-methyl-amine]	1.9 µM	–
NCc1c(-c2ccc(Cl)cc2Cl)ncn1Cc1ccc(Cl)c(Cl)c1 [77b, C-[3-(3,4-Dichloro-benzyl)-5-(2,4-dichloro-phenyl)-3H-imidazol-4-yl]-methylamine]	–	7.3 µM
CCn1cnc(-c2ccc(Cl)cc2Cl)c1CN [Example 59a, C-[5-(2,4-Dichloro-phenyl)-3-eth-yl-3H-imid-azol-4-yl]-methyl-amine]	25.3 µM	–
NCc1c(-c2ccc(F)cc2Cl)ncn1Cc1ccc(Cl)cc1 [Example 22a, C-[3-(4-Chloro-benzyl)-5-(2-chloro-4-fluoro-phenyl)-3H-imid-azol-4-yl]-methyl-amine]	37.9 µM	–

Compound	IC50 [1]	IC50 [2]
CC(C)N(CCn1cnc(-c2ccc(Cl)cc2Cl)c1CN)C(C)C [6b, {2-[5-Aminomethyl-4-(2,4-dichloro-phenyl)-imidazol-1-yl]-ethyl}-diisopropyl-amine]	–	10.9 µM
COc1cccc(Cn2cnc(-c3ccc(Cl)cc3Cl)c2CN)c1 [Example 41a, C-[5-(2,4-Dichloro-phenyl)-3-(3-methoxy-benzyl)-3H-imid-azol-4-yl]-methyl-amine]	0.1 µM	–
Cc1ccc(Cn2cnc(-c3ccc(Cl)cc3Cl)c2C(C)N)cc1 (stereo not shown) [116b, 1-[5-(2,4-Dichloro-phenyl)-3-(4-methyl-benzyl)-3H-imidazol-4-yl]-ethylamine]	–	23.5 µM
Cc1ccc(-c2ncn(Cc3ccccc3)c2CN)c(C)c1 [Example 69a, C-[3-Benzyl-5-(2,4-di-methyl-phenyl)-3H-imid-azol-4-yl]-methyl-amine]	40.6 µM	–
NCCc1c(-c2ccc(Cl)cc2Cl)ncn1CCc1cccc(Cl)c1 [37b, 2-[3-[2-(3-Chloro-phenyl)-ethyl]-5-(2,4-dichloro-phenyl)-3H-imidazol-4-yl]-ethylamine]	–	48.7 µM
NCc1c(-c2ccc(Cl)cc2Cl)ncn1CCC(c1ccccc1)c1ccccc1 [53b, C-[5-(2,4-Dichloro-phenyl)-3-(3,3-diphenyl-propyl)-3H-imidazol-4-yl]-methylamine]	–	18.1 µM
CC(N)c1c(-c2ccc(Cl)cc2Cl)ncn1CCCN1CCCC1=O (stereo not shown) [22b, 1-{3-[5-(1-Amino-ethyl)-4-(2,4-dichloro-phenyl)-imidazol-1-yl]-propyl}-pyrrolidin-2-one]	–	30.7 µM
CC(N)c1c(-c2ccc(Cl)cc2Cl)ncn1Cc1ccccc1Cl (stereo not shown) [67b, 1-[3-(2-Chloro-benzyl)-5-(2,4-dichloro-phenyl)-3H-imidazol-4-yl]-ethylamine]	–	28.9 µM
NCc1c(-c2ccc(F)cc2Cl)ncn1Cc1ccccc1C(F)(F)F [Example 19a, C-[5-(2-Chloro-4-fluoro-phenyl)-3-(2-tri-fluorometh-yl-benzyl)-3H-imid-azol-4-yl]-methyl-amine]	35.2 µM	–
NCc1c(-c2ccc(Cl)cc2Cl)ncn1CCc1ccc(F)cc1 [55b, C-{5-(2,4-Dichloro-phenyl)-3-[2-(4-fluoro-phenyl)-ethyl]-3H-imidazol-4-yl}-methylamine]	–	3.7 µM
NCCc1c(-c2ccc(Cl)cc2Cl)ncn1CCNc1ccc([N+](=O)[O-])cn1 [79b, {2-[5-(2-Amino-ethyl)-4-(2,4-dichloro-phenyl)-imidazol-1-yl]-ethyl}-(5-nitro-pyridin-2-yl)-amine]	–	16.3 µM
CCCCCCn1cnc(-c2ccc(Cl)cc2Cl)c1CN [84b, C-[5-(2,4-Dichloro-phenyl)-3-hexyl-3H-imidazol-4-yl]-methylamine]	–	1 µM
NCc1c(-c2ccc(Cl)cc2Cl)ncn1Cc1c(F)cccc1F [40b, C-[5-(2,4-Dichloro-phenyl)-3-(2,6-difluoro-benzyl)-3H-imidazol-4-yl]-methylamine]	–	10.9 µM
NCc1c(-c2ccc(Cl)cc2Cl)ncn1CCc1cccnc1 [9b, C-[5-(2,4-Dichloro-phenyl)-3-(2-pyridin-3-yl-ethyl)-3H-imidazol-4-yl]-methylamine]	–	7.3 µM
C[C@H](N)c1c(-c2ccc(Cl)cc2Cl)ncn1CCNc1ccc([N+](=O)[O-])cn1 [111b, {2-[5-((S)-1-Amino-ethyl)-4-(2,4-dichloro-phenyl)-imidazol-1-yl]-ethyl}-(5-nitro-pyridin-2-yl)-amine]	–	21.7 µM
CC(N)c1c(-c2ccc(Cl)cc2Cl)ncn1CCC1=CCCCC1 (stereo not shown) [71b, 1-[3-(2-Cyclohex-1-enyl-ethyl)-5-(2,4-dichloro-phenyl)-3H-imidazol-4-yl]-ethylamine]	–	35.2 µM
NCc1c(-c2ccc(F)cc2F)ncn1Cc1ccccn1 [Example 88a, C-[5-(2,4-Difluoro-phenyl)-3-pyri-din-2-yl-methyl-3H-imid-azol-4-yl]-methyl-amine]	29.8 µM	–
NCc1c(-c2ccc(Cl)cc2Cl)ncn1CCc1ccc(Cl)cc1Cl [Example 32b, C-{5-(2,4-dichloro-phenyl)-3-[2-(2,4-dichloro-phenyl)-ethyl]-3H-imidazol-4-yl}-methylamine]	–	15.4 µM
Cc1ccc(-c2ncn(Cc3cc(Br)ccc3F)c2CN)c(C)c1 [Example 68a, C-[3-(5-Bro-mo-2-fluoro-benzyl)-5-(2,4-dimethyl-phenyl)-3H-imid-azol-4-yl]-methyl-amine]	37.9 µM	–
NCc1c(-c2ccc(Cl)cc2Cl)ncn1Cc1ccccc1F [Example 62a, C-[5-(2,4-Dichloro-phenyl)-3-(2-fluoro-benzyl)-3H-imid-azol-4-yl]-methyl-amine]	0.1 µM	–
NCc1c(-c2ccc(F)cc2Cl)ncn1Cc1ccccc1OC(F)(F)F [Example 23a, C-[5-(2-Chloro-4-fluoro-phenyl)-3-(2-tri-fluoromethoxy-benzyl)-3H-imid-azl-4-yl]-methyl-amine]	5.5 µM	–
